The values below come from ChEMBL document CHEMBL2073762, “Carrier-mediated mechanism for the biliary excretion of the quinolone antibiotic grepafloxacin and its glucuronide in rats” (J Pharmacol Exp Ther, 1998).

Data set [1] addresses T1, ATP-binding cassette sub-family C member 2 (Rattus norvegicus, UniProt Q63120). In words: TP_TRANSPORTER: inhibition of DNP-SG uptake in bile canalicular membrane vesicles from SD rat. The data set is classed as functional, cell membranes, Sprague-Dawley, Bile canalicular membrane vesicle.
The target of data set [2] is T1, ATP-binding cassette sub-family C member 2. Description: TP_TRANSPORTER: uptake in bile canalicular membrane vesicles from EHBR rat. Format: functional, cell membranes, Bile canalicular membrane vesicle.
For data set [3] the target is unchanged. In words: TP_TRANSPORTER: uptake in bile canalicular membrane vesicles from SD rat. The data set is classed as functional, cell membranes, Sprague-Dawley, Bile canalicular membrane vesicle.
Data set [4] has the same target. In words: TP_TRANSPORTER: inhibition of DNP-SG uptake (DNP-SG: 1 uM, LFLX: 10000uM) in bile canalicular membrane vesicles from EHBR rat. The data set is classed as functional, cell membranes, Bile canalicular membrane vesicle.
Data set [5] shares this target. In words: TP_TRANSPORTER: inhibition of DNP-SG uptake (DNP-SG: 1 uM, LFLX: 10000uM) in bile canalicular membrane vesicles from SD rat. Format: functional, cell membranes, Sprague-Dawley, Bile canalicular membrane vesicle.
Data set [6] shares this target. Description: TP_TRANSPORTER: inhibition of DNP-SG uptakee (DNP-SG: 1 uM, OFLX: 10000 uM) in bile canalicular membrane vesicles from SD rat. Format: functional, cell membranes, Sprague-Dawley, Bile canalicular membrane vesicle.
Data set [7] has the same target. Description: TP_TRANSPORTER: inhibition of DNP-SG uptakee (DNP-SG: 1 uM, SPFX: 3000 uM) in bile canalicular membrane vesicles from SD rat. Also on record: scale not given: the % may be the effect or the level left. The data set is classed as functional, cell membranes, Sprague-Dawley, Bile canalicular membrane vesicle.
Data set [8] has as its target ATP-binding cassette sub-family C member 2 (ABCC2/Mrp2) (Rattus norvegicus, UniProt Q63120). Description: TP_TRANSPORTER: inhibition of DNP-SG uptakee (DNP-SG: 1 uM, SPFX: 3000 uM) in bile canalicular membrane vesicles from EHBR rat. Format: functional, cell membranes, Bile canalicular membrane vesicle. Also on record: scale not given: the % may be the effect or the level left. The following applies: probe DNP-SG (1 uM), read-out: Activity.

Substrate in data set [9]: Cc1c(F)c(N2CCNC(C)C2)cc2c1c(=O)c(C(=O)O[C@@H]1O[C@H](C(=O)O)[C@@H](O)[C@H](O)[C@H]1O)cn2C1CC1
In words: TP_TRANSPORTER: uptake, high affinity component in bile canalicular membrane vesicles from SD rat. The data set is classed as functional, cell membranes, Sprague-Dawley, Bile canalicular membrane vesicle.

As usually defined, the Ki is a measure of affinity in units of concentration, obtained from inhibition or displacement. Regarding `Cc1c(F)c(N2CCNC(C)C2)cc2c1c(=O)c(C(=O)O[C@@H]1O[C@H](C(=O)O)[C@@H](O)[C@H](O)[C@H]1O)cn2C1CC1` (stereo not given in full) [GREPAFLOXACIN GLUCURONIDE], in [1], the Ki came out at 9.2 µM.

`Cc1c(F)c(N2CCNC(C)C2)cc2c1c(=O)c(C(=O)O)cn2C1CC1` (stereo not given) [GREPAFLOXACIN] yielded an inhibition constant Ki in data set [1] of 1890 µM. Moreover, the Activity entry in [2] and in [3] was “substrate [+]” each time.

Regarding `CCn1cc(C(=O)O)c(=O)c2cc(F)c(N3CCNC(C)C3)c(F)c21` (stereo not given) [LOMEFLOXACIN], the Activity result in data set [4] and in [5] was “inhibitor [(at a rough estimate) 50 % of control]” throughout.

As to `CC1COc2c(N3CCN(C)CC3)c(F)cc3c(=O)c(C(=O)O)cn1c23` (stereo not given) [OFLOXACIN], the Activity entry in data set [6] was “inhibitor [(at a rough estimate) 50 % of control]”.

`C[C@@H]1CN(c2c(F)c(N)c3c(=O)c(C(=O)O)cn(C4CC4)c3c2F)C[C@H](C)N1` [SPARFLOXACIN]: the Activity in data set [7] amounted to 60%. The activity at 3000 µM in data set [8] turned out to be 60%.

B1: ATP-binding cassette sub-family C member 2 (Rattus norvegicus) (protein)
chain: MDKFCNSTFWDLSLLESPEADLPLCFEQTVLVWIPLGFLWLLAPWQLYSVYRSRTKRSSITKFYLAKQVFVVFLLILAAIDLSLALTEDTGQATVPPVRYTNPILYLCTWLLVLAVQHSRQWCVRKNSWFLSLFWILSVLCGVFQFQTLIRALLKDSKSNMAYSYLFFVSYGFQIVLLILTAFSGPSDSTQTPSVTASFLSSITFSWYDRTVLKGYKHPLTLEDVWDIDEGFKTRSVTSKFEAAMTKDLQKARQAFQRRLQKSQRKPEATLHGLNKKQSQSQDVLVLEEAKKKSEKTTKDYPKSWLIKSLFKTFHVVILKSFILKLIHDLLVFLNPQLLKLLIGFVKSSNSYVWFGYICAILMFAVTLIQSFCLQSYFQHCFVLGMCVRTTVMSSIYKKALTLSNLARKQYTIGETVNLMSVDSQKLMDATNYMQLVWSSVIQITLSIFFLWRELGPSILAGVGVMVLLIPVNGVLATKIRNIQVQNMKNKDKRLKIMNEILSGIKILKYFAWEPSFQEQVQGIRKKELKNLLRFGQLQSLLIFILQITPILVSVVTFSVYVLVDSANVLNAEKAFTSITLFNILRFPLSMLPMVTSSILQASVSVDRLERYLGGDDLDTSAIRRVSNFDKAVKFSEASFTWDPDLEATIQDVNLDIKPGQLVAVVGTVGSGKSSLVSAMLGEMENVHGHITIQGSTAYVPQQSWIQNGTIKDNILFGSEYNEKKYQQVLKACALLPDLEILPGGDMAEIGEKGINLSGGQKQRVSLARAAYQDADIYILDDPLSAVDAHVGKHIFNKVVGPNGLLAGKTRIFVTHGIHFLPQVDEIVVLGKGTILEKGSYRDLLDKKGVFARNWKTFMKHSGPEGEATVNNDSEAEDDDDGLIPTMEEIPEDAASLAMRRENSLRRTLSRSSRSSSRRGKSLKNSLKIKNVNVLKEKEKEVEGQKLIKKEFVETGKVKFSIYLKYLQAVGWWSILFIILFYGLNNVAFIGSNLWLSAWTSDSDNLNGTNNSSSHRDMRIGVFGALGLAQGICLLISTLWSIYACRNASKALHGQLLTNILRAPMRFFDTTPTGRIVNRFSGDISTVDDLLPQTLRSWMMCFFGIAGTLVMICMATPVFAIIIIPLSILYISVQVFYVATSRQLRRLDSVTKSPIYSHFSETVTGLPIIRAFEHQQRFLAWNEKQIDINQKCVFSWITSNRWLAIRLELVGNLVVFCSALLLVIYRKTLTGDVVGFVLSNALNITQTLNWLVRMTSEAETNIVAVERISEYINVENEAPWVTDKRPPADWPRHGEIQFNNYQVRYRPELDLVLKGITCNIKSGEKVGVVGRTGAGKSSLTNCLFRILESAGGQIIIDGIDVASIGLHDLRERLTIIPQDPILFSGSLRMNLDPFNKYSDEEVWRALELAHLRSFVSGLQLGLLSEVTEGGDNLSIGQRQLLCLGRAVLRKSKILVLDEATAAVDLETDSLIQTTIRKEFSQCTVITIAHRLHTIMDSDKIMVLDNGKIVEYGSPEELLSNRGSFYLMAKEAGIENVNHTEL
What is called Km is the concentration of substrate that gives half-maximal velocity. As to B1, the Michaelis constant (Km) in [9] turned out to be 7.2 µM.
